Laboratory results as given in patent publication US4443436A, “C-20-Modified macrolide derivatives of the macrolide antibiotics tylosin, desmycosin, macrocin, and lactenocin” (Eli Lilly and Company, priority 1982, dated 1984).
In brackets after ≈: the same amount, converted by molar mass. Like-named read-outs stand apart in the source and are kept apart here.

How the values were obtained:
[1] = tested on: Staphylococcus aureus X1.1; test: MIC, standard agar-dilution assay, Staphylococcus aureus X1.1; format: cell-based
[2] = tested on: Staphylococcus aureus V41; test: MIC, standard agar-dilution assay, Staphylococcus aureus V41; format: cell-based
[3] = tested on: Staphylococcus aureus X400; test: MIC, standard agar-dilution assay, Staphylococcus aureus X400; format: cell-based
[4] = tested on: Staphylococcus aureus S13E; test: MIC, standard agar-dilution assay, Staphylococcus aureus S13E; format: cell-based
[5] = tested on: Staphylococcus epidermidis EPI1; test: MIC, standard agar-dilution assay, Staphylococcus epidermidis EPI1; format: cell-based
[6] = tested on: Staphylococcus epidermidis EPI2; test: MIC, standard agar-dilution assay, Staphylococcus epidermidis EPI2; format: cell-based
[7] = tested on: Streptococcus pyogenes C203; test: MIC, standard agar-dilution assay, Streptococcus pyogenes C203; format: cell-based
[8] = tested on: Streptococcus pneumoniae Park I; test: microbe, parasite or virus in culture; format: cell-based
[9] = tested on: Streptococcus Group D X66; test: MIC, standard agar-dilution assay, Streptococcus Group D X66; format: cell-based
Streptococcus Group 9960 = test: MIC, standard agar-dilution assay, Streptococcus Group 9960; format: cell-based; conditions: Streptococcus Group 9960, agar dilution
[10] = tested on: Haemophilus influenzae Holt; test: MIC, standard agar-dilution assay, Haemophilus influenzae Holt; format: cell-based; conditions: Haemophilus influenzae Holt, ampicillin-sensitive strain
[11] = tested on: Haemophilus influenzae R252; test: MIC, standard agar-dilution assay, Haemophilus influenzae R252; format: cell-based
Staphylococcus aureus = test: MIC, broth-dilution microtiter test, Staphylococcus aureus; format: cell-based
Description: (§1) The MIC's in Table X were obtained using conventional broth-dilution microtiter tests.

Streptococcus bovis 80 = test: MIC, broth-dilution microtiter test, Streptococcus bovis 80; format: cell-based; conditions: Streptococcus bovis 80, broth-dilution microtiter
Description: as §1

[12] = tested on: Pasteurella multocida 17E; test: MIC, broth-dilution microtiter test, Pasteurella multocida 17E; format: cell-based
Description: as §1

[13] = tested on: Pasteurella multocida 60A; test: MIC, broth-dilution microtiter test, Pasteurella multocida 60A; format: cell-based
Description: as §1

[14] = tested on: Pasteurella hemolytica 22C; test: MIC, broth-dilution microtiter test, Pasteurella hemolytica 22C; format: cell-based
Description: as §1

Mycoplasma gallisepticum = test: MIC, broth-dilution microtiter test, Mycoplasma gallisepticum; format: cell-based
Description: as §1

Mycoplasma synoviae = test: MIC, broth-dilution microtiter test, Mycoplasma synoviae; format: cell-based
Description: as §1

Mycoplasma hyorhinis = test: MIC, broth-dilution microtiter test, Mycoplasma hyorhinis; format: cell-based; conditions: Mycoplasma hyorhinis, broth-dilution microtiter
Description: as §1

Mycoplasma hyopneumoniae = test: MIC, broth-dilution microtiter test, Mycoplasma hyopneumoniae; format: cell-based
Description: as §1

[15] = tested on: Streptococcus pyogenes C203; test: In vivo protection of mice experimentally infected with S. pyogenes C203; conditions: Streptococcus pyogenes, mice, doses given 1 and 4 hours post-infection
Experimental: The C-20 modified derivatives of this invention have shown in vivo antimicrobial activity against experimentally-induced infections in laboratory animals. When two doses of test compound were administered to mice experimentally infected with S. pyogenes C203, the activity observed was measured as an ED50 value [effective dose in mg/kg to protect 50% of the test animals: see Warren Wick, et al., J. Bacteriol. 81, 233-235 (1961)].

[16] = Staphylococcus epidermidis, EPI1
[17] = Staphylococcus epidermidis, EPI2
[18] = Streptococcus pneumoniae Park I, agar dilution, read-out: MIC
[19] = Haemophilus influenzae R252, ampicillin-resistant strain, read-out: MIC
[20] = Streptococcus equinus, read-out: MIC
[21] = Pasteurella multocida 17E, bovine isolate, broth-dilution microtiter, read-out: MIC
[22] = Pasteurella multocida 60A, avian isolate, broth-dilution microtiter, read-out: MIC
[23] = Pasteurella hemolytica 22C, broth-dilution microtiter, read-out: MIC
[24] = Streptococcus Group D X66, agar dilution, read-out: MIC
[25] = Mesomycoplasma hyopneumoniae, Mycoplasma hyopneumoniae, broth-dilution microtiter, read-out: MIC

Work on `CCC1OC(=O)CC(O)C(C)C(OC2OC(C)C(OC3CC(C)(O)C(O)C(C)O3)C(N(C)C)C2O)C(CCOc2ccc(C=O)cc2)CC(C)C(=O)C=CC(C)=CC1COC1OC(C)C(O)C(OC)C1OC` (centres unmarked) [Compound 17, 20-DH-20-O-(p-Formylphenyl)tylosin] yielded an MIC ([1]; Staphylococcus aureus, X1.1) of 1 µg/mL (≈ 0.978 µM), an MIC ([2]; Staphylococcus aureus, V41) of 1 µg/mL (≈ 0.978 µM) and an MIC ([3]; Staphylococcus aureus, X400) of 2 µg/mL (≈ 1.96 µM). The MIC ([4]; Staphylococcus aureus, S13E) was 1 µg/mL (≈ 0.978 µM), the MIC [5, 16] was 1 µg/mL (≈ 0.978 µM) and the MIC [6, 17] was 0.5 µg/mL (≈ 0.489 µM). For the same compound, the MIC ([7]; Streptococcus pyogenes, C203) was 1 µg/mL (≈ 0.978 µM), the MIC [8, 18] was 16 µg/mL (≈ 15.7 µM) and the MIC [9] was 128 µg/mL (≈ 125 µM). It also gave an MIC (Streptococcus Group 9960; GROUP9960, read-out: MIC) greater than 128 µg/mL, an MIC ([10]; read-out: MIC) greater than 128 µg/mL and an MIC [11, 19] greater than 128 µg/mL. It also gave an MIC (Staphylococcus aureus) of 1.56 µg/mL (≈ 1.53 µM), an MIC (Streptococcus bovis 80; [20]) of 50 µg/mL (≈ 48.9 µM) and an MIC [12, 21] greater than 50 µg/mL. It also gave an MIC [13, 22] greater than 50 µg/mL, an MIC [14, 23] greater than 50 µg/mL and an MIC (Mycoplasma gallisepticum; Mycoplasmoides gallisepticum) of 0.78 µg/mL (≈ 0.763 µM). It also gave an MIC (Mycoplasma synoviae; Mycoplasmopsis synoviae) of 6.25 µg/mL (≈ 6.11 µM), an MIC (Mycoplasma hyorhinis; read-out: MIC) greater than 50 µg/mL and an MIC (Mycoplasma hyopneumoniae; Mesomycoplasma hyopneumoniae) greater than 25 µg/mL.
For `CCC1OC(=O)CC(O)C(C)C(OC2OC(C)C(OC3CC(C)(O)C(O)C(C)O3)C(N(C)C)C2O)C(CCOC(C(F)(F)F)C(F)(F)F)CC(C)C(=O)C=CC(C)=CC1COC1OC(C)C(O)C(OC)C1OC` (centres unmarked) [Compound 19, 20-DH-20-O-[2,2,2-Trifluoro-1-(trifluormethyl)ethyl]tylosin], the MIC ([1]; Staphylococcus aureus, X1.1) was 4 µg/mL (≈ 3.74 µM), the MIC ([2]; Staphylococcus aureus, V41) was 4 µg/mL (≈ 3.74 µM) and the MIC ([3]; Staphylococcus aureus, X400) was 4 µg/mL (≈ 3.74 µM). The MIC ([4]; Staphylococcus aureus, S13E) was 4 µg/mL (≈ 3.74 µM), the MIC [5, 16] was 4 µg/mL (≈ 3.74 µM) and the MIC ([6]; Staphylococcus epidermidis EPI2, agar dilution, read-out: MIC) was 2 µg/mL (≈ 1.87 µM). It also gave an MIC ([7]; Streptococcus pyogenes C203, agar dilution, read-out: MIC) of 8 µg/mL (≈ 7.49 µM), an MIC [8, 18] of 32 µg/mL (≈ 30 µM) and an MIC [9, 24] greater than 128 µg/mL. The MIC (Streptococcus Group 9960; GROUP9960, read-out: MIC) was greater than 128 µg/mL, the MIC ([10]; read-out: MIC) was greater than 128 µg/mL and the MIC [11, 19] was greater than 128 µg/mL. It also gave an MIC (Staphylococcus aureus) of 12.5 µg/mL (≈ 11.7 µM), an MIC (Streptococcus bovis 80; [20]) greater than 50 µg/mL and an MIC [12, 21] greater than 50 µg/mL. For the same compound, the MIC [13, 22] was greater than 50 µg/mL, the MIC [14, 23] was greater than 50 µg/mL and the MIC (Mycoplasma gallisepticum; Mycoplasmoides gallisepticum) was 3.12 µg/mL (≈ 2.92 µM). The MIC (Mycoplasma synoviae; Mycoplasmopsis synoviae) was 12.5 µg/mL (≈ 11.7 µM), the MIC (Mycoplasma hyorhinis; read-out: MIC) was greater than 50 µg/mL and the MIC (Mycoplasma hyopneumoniae; [25]) was greater than 25 µg/mL.
`CCC1OC(=O)CC(O)C(C)C(OC2OC(C)C(O)C(N(C)C)C2O)C(CCOC(C(F)(F)F)C(F)(F)F)CC(C)C(=O)C=CC(C)=CC1COC1OC(C)C(O)C(OC)C1OC` (centres unmarked) [Compound 32, 20-DH-20-O-[2,2,2-trifluoro-1-(trifluoromethyl)ethyl]desmycosin] gave an MIC ([1]; Staphylococcus aureus, X1.1) of 0.5 µg/mL (≈ 0.541 µM), an MIC ([2]; Staphylococcus aureus, V41) of 0.5 µg/mL (≈ 0.541 µM) and an MIC ([3]; Staphylococcus aureus, X400) of 0.5 µg/mL (≈ 0.541 µM). For the same compound, the MIC ([4]; Staphylococcus aureus, S13E) was 0.5 µg/mL (≈ 0.541 µM), the MIC [5, 16] was 0.5 µg/mL (≈ 0.541 µM) and the MIC [6, 17] was 0.25 µg/mL (≈ 0.271 µM). It also gave an MIC ([7]; Streptococcus pyogenes, C203) of 0.5 µg/mL (≈ 0.541 µM), an MIC ([8]; Streptococcus pneumoniae) of 4 µg/mL (≈ 4.33 µM) and an MIC [9, 24] of 32 µg/mL (≈ 34.6 µM). For the same compound, the MIC (Streptococcus Group 9960; GROUP9960, read-out: MIC) was 32 µg/mL (≈ 34.6 µM), the MIC ([10]; read-out: MIC) was 64 µg/mL (≈ 69.3 µM) and the MIC ([11]; Haemophilus influenzae, R252) was 128 µg/mL (≈ 139 µM). For the same compound, the MIC (Staphylococcus aureus) was 0.78 µg/mL (≈ 0.844 µM), the MIC (Streptococcus bovis 80; [20]) was 12.5 µg/mL (≈ 13.5 µM) and the MIC ([12]; Pasteurella multocida, 17E) was 50 µg/mL (≈ 54.1 µM). It also gave an MIC ([13]; Pasteurella multocida, 60A) of 50 µg/mL (≈ 54.1 µM), an MIC ([14]; Pasteurella, 22C) of 50 µg/mL (≈ 54.1 µM) and an MIC (Mycoplasma gallisepticum; Mycoplasmoides gallisepticum, Mycoplasma gallisepticum, broth-dilution microtiter, read-out: MIC) of 0.19 µg/mL (≈ 0.206 µM). It also gave an MIC (Mycoplasma synoviae; Mycoplasmopsis synoviae) of 1.56 µg/mL (≈ 1.69 µM), an MIC (Mycoplasma hyorhinis; read-out: MIC) greater than 50 µg/mL and an MIC (Mycoplasma hyopneumoniae; [25]) greater than 25 µg/mL. It also gave an ED50 ([15]; C203, sc, subcutaneous, read-out: ED50, Subcutaneous) greater than 10 mg/kg and an ED50 ([15]; C203, oral, read-out: ED50, Oral) of 25 mg/kg.
`CCC1OC(=O)CC(O)C(C)C(OC2OC(C)C(OC3CC(C)(O)C(O)C(C)O3)C(N(C)C)C2O)C(CCOc2ccccc2)CC(C)C(=O)C=CC(C)=CC1COC1OC(C)C(O)C(O)C1OC` (centres unmarked) [Compound 53, 20-DH-20-O-Phenylmacrocin] showed an MIC ([1]; Staphylococcus aureus X1.1, agar dilution) of 2 µg/mL (≈ 2.04 µM), an MIC ([2]; Staphylococcus aureus V41, penicillin-resistant strain, agar dilution) of 2 µg/mL (≈ 2.04 µM) and an MIC ([3]; Staphylococcus aureus X400, methicillin-resistant strain, agar dilution) of 4 µg/mL (≈ 4.08 µM). The MIC ([4]; Staphylococcus aureus S13E, agar dilution) was 2 µg/mL (≈ 2.04 µM), the MIC ([5]; Staphylococcus epidermidis EPI1, agar dilution) was 2 µg/mL (≈ 2.04 µM) and the MIC ([6]; Staphylococcus epidermidis EPI2, agar dilution) was 2 µg/mL (≈ 2.04 µM). The MIC ([7]; Streptococcus pyogenes C203, agar dilution) was 4 µg/mL (≈ 4.08 µM), the MIC ([8]; Streptococcus pneumoniae Park I, agar dilution) was 32 µg/mL (≈ 32.6 µM) and the MIC ([9]; Streptococcus Group D X66, agar dilution) was “-- (Not active at 128 mcg/ml, the highest level tested)”. The MIC (Streptococcus Group 9960) was “-- (Not active at 128 mcg/ml, the highest level tested)”, the MIC ([10]; agar dilution) was “-- (Not active at 128 mcg/ml, the highest level tested)” and the MIC ([11]; Haemophilus influenzae R252, ampicillin-resistant strain, agar dilution) was “-- (Not active at 128 mcg/ml, the highest level tested)”. The MIC (Staphylococcus aureus; broth-dilution microtiter) was 0.39 µg/mL (≈ 0.398 µM), the MIC (Streptococcus bovis 80) was 6.25 µg/mL (≈ 6.38 µM) and the MIC ([12]; Pasteurella multocida 17E, bovine isolate, broth-dilution microtiter) was 25 µg/mL (≈ 25.5 µM). For the same compound, the MIC ([13]; Pasteurella multocida 60A, avian isolate, broth-dilution microtiter) was 12.5 µg/mL (≈ 12.8 µM), the MIC ([14]; Pasteurella hemolytica 22C, broth-dilution microtiter) was 25 µg/mL (≈ 25.5 µM) and the MIC (Mycoplasma gallisepticum; Mycoplasma gallisepticum, broth-dilution microtiter) was less than 0.05 µg/mL. For the same compound, the MIC (Mycoplasma synoviae; Mycoplasma synoviae, broth-dilution microtiter) was 3.12 µg/mL (≈ 3.18 µM), the MIC (Mycoplasma hyorhinis) was 50 µg/mL (≈ 51 µM) and the MIC (Mycoplasma hyopneumoniae; Mycoplasma hyopneumoniae, broth-dilution microtiter) was 0.78 µg/mL (≈ 0.796 µM).
